According to patent publication US20120220562A1, “Anti-Viral Compounds” (ABBOTT LABAORATORIES, priority 2011, published 2012):

System: HCV 1b-Con1 replicon
Assay: HCV 1b-Con1 replicon assay in the presence of 5% FBS
Type: cell-based
Settings: Hepatitis C virus

Structure (SMILES)	EC50
COC(=O)N[C@H](C(=O)N1CCC[C@H]1c1nc2ccc([C@H]3CC[C@H](c4ccc5nc([C@@H]6CCCN6C(=O)[C@@H](NC(=O)OC)C(C)C)[nH]c5c4)N3c3cc(F)c(N4CCC(CCCc5ccccc5)CC4)c(F)c3)cc2[nH]1)C(C)C [Example 2.10, methyl {(2S)-1-[(2S)-2-{5-[(2R,5R)-1-{3,5-difluoro-4-[4-(3-phenylpropyl)piperidin-1-yl]phenyl}-5-{2-[(2S)-1-{(2S)-2-[(methoxycarbonyl)amino]-3-methylbutanoyl}pyrrolidin-2-yl]-1H-benzimidazol-5-yl}pyrrolidin-2-yl]-1H-benzimidazol-2-yl}pyrrolidin-1-yl]-3-methyl-1-oxobutan-2-yl}carbamate]	< 0.1 nM
COC(=O)N[C@H](C(=O)N1CCC[C@H]1c1nc2cc([C@H]3CC[C@H](c4ccc5[nH]c([C@@H]6CCCN6C(=O)[C@@H](NC(=O)OC)C(C)C)nc5c4)N3c3cc(F)c(N4CCC(C)(C)CC4)c(F)c3)ccc2[nH]1)C(C)C [Example 5.10, methyl {(2S)-1-[(2S)-2-{5-[(2R,5R)-1-[4-(4,4-dimethylpiperidin-1-yl)-3,5-difluorophenyl]-5-{2-[(2S)-1-{(2S)-2-[(methoxycarbonyl)amino]-3-methylbutanoyl}pyrrolidin-2-yl]-1H-benzimidazol-5-yl}pyrrolidin-2-yl]-1H-benzimidazol-2-yl}pyrrolidin-1-yl]-3-methyl-1-oxobutan-2-yl}carbamate]	< 0.1 nM
COC(=O)N[C@H](C(=O)N1CCC[C@H]1c1nc2cc([C@@H]3CC[C@@H](c4ccc5[nH]c([C@@H]6CCCN6C(=O)[C@@H](NC(=O)OC)[C@@H](C)OC)nc5c4)N3c3ccc(C4CC4)cc3)ccc2[nH]1)[C@@H](C)OC [Example 4.14, methyl {(2S,3R)-1-[(2S)-2-{5-[(2S,55)-1-(4-cyclopropylphenyl)-5-(2-{(2S)-1-[N-(methoxycarbonyl)-O-methyl-L-threonyl]pyrrolidin-2-yl}-1H-benzimidazol-5-yl)pyrrolidin-2-yl]-1H-benzimidazol-2-yl}pyrrolidin-1-yl]-3-methoxy-1-oxobutan-2-yl}carbamate]	< 0.1 nM
COC(=O)N[C@H](C(=O)N1[C@H](c2nc3cc([C@H]4CC[C@H](c5cc6nc([C@@H]7C[C@@H]8CCC[C@@H]8N7C(=O)[C@@H](NC(=O)OC)C7CCCC7)[nH]c6cc5F)N4c4cc(F)c(N5CCCCC5)c(F)c4)c(F)cc3[nH]2)C[C@@H]2CCC[C@@H]21)C1CCCC1 [Example 3.40, dimethyl ({(2R,5R)-1-[3,5-difluoro-4-(piperidin-1-yl)phenyl]pyrrolidine-2,5-diyl}bis{(6-fluoro-1H-benzimidazole-5,2-diyl)(2S,3aS,6aS)hexahydrocyclopenta[b]pyrrole-2,1(2H)-diyl[(1S)-1-cyclopentyl-2-oxoethane-2,1-diyl]})biscarbamate]	< 0.1 nM
COC(=O)N[C@H](C(=O)N1[C@H](c2nc3cc([C@H]4CC[C@H](c5ccc6[nH]c([C@@H]7C[C@@H]8CCC[C@@H]8N7C(=O)[C@@H](NC(=O)OC)C7CCOCC7)nc6c5)N4c4cc(F)c(N5CCCCC5)c(F)c4)ccc3[nH]2)C[C@@H]2CCC[C@@H]21)C(C)C [Example 10.1, methyl [(1S)-2-[(2S,3aS,6aS)-2-{5-[(2R,5R)-1-[3,5-difluoro-4-(piperidin-1-yl)phenyl]-5-{2[(2S,3aS,6aS)-1-{(2S)-2-[(methoxycarbonyl)amino]-3-methylbutanoyl}octahydrocyclopenta[b]pyrrol-2-yl]-1H-benzimidazol-5-yl}pyrrolidin-2-yl]-1H-benzimidazol-2-yl}hexahydrocyclopenta[b]pyrrol-1(2H)-yl]-2-oxo-1-(tetrahydro-2H-pyran-4-yl)ethyl]carbamate]	< 0.1 nM
COC(=O)N[C@H](C(=O)N1[C@H](c2nc3cc([C@H]4CC[C@H](c5ccc6[nH]c([C@@H]7C[C@@H]8CCC[C@@H]8N7C(=O)[C@@H](NC(=O)OC)[C@@H](C)OC)nc6c5)N4c4cc(F)c(N5CCCCC5)c(F)c4)ccc3[nH]2)C[C@@H]2CCC[C@@H]21)[C@@H](C)OC [Example 3.33]	< 0.1 nM
COC(=O)N[C@H](C(=O)N1CCC[C@H]1c1nc2ccc([C@H]3CC[C@H](c4ccc5nc([C@@H]6CCCN6C(=O)[C@@H](NC(=O)OC)C(C)C)[nH]c5c4)N3c3cc(F)c(N4CCC(C)CC4)c(F)c3)cc2[nH]1)C(C)C [Example 2.9, methyl {(2S)-1-[(2S)-2-{6-[(2R,5R)-1-[3,5-difluoro-4-(4-methylpiperidin-1-yl)phenyl]-5-{2-[(2S)-1-{(2S)-2-[(methoxycarbonyl)amino]-3-methylbutanoyl}pyrrolidin-2-yl]-1H-benzimidazol-6-yl}pyrrolidin-2-yl]-1H-benzimidazol-2-yl}pyrrolidin-1-yl]-3-methyl-1-oxobutan-2-yl}carbamate]	< 0.1 nM
O=C([C@@H]1CCCO1)N1CCC[C@H]1c1nc2cc([C@H]3CC[C@H](c4ccc5[nH]c([C@@H]6CCCN6C(=O)[C@@H]6CCCO6)nc5c4)N3c3cc(F)c(N4CCC(c5ccccc5)CC4)c(F)c3)ccc2[nH]1 [Example 3.31, ({(2R,5R)-1-[3,5-difluoro-4-(4-phenylpiperidin-1-yl)phenyl]pyrrolidine-2,5-diyl}bis[1H-benzimidazole-5,2-diyl(2S)pyrrolidine-2,1-diyl])bis[(2S)-tetrahydrofuran-2-ylmethanone]]	< 0.1 nM
COC(=O)N[C@H](C(=O)N1CCC[C@H]1c1nc2cc([C@H]3CC[C@H](c4ccc5[nH]c([C@@H]6CCCN6C(=O)[C@@H](NC(=O)OC)C(C)C)nc5c4)N3c3cc(F)c(N4CCCCC4)cc3F)ccc2[nH]1)C(C)C [Example 4.5, methyl {(2S)-1-[(2S)-2-{5-[(2R,5R)-1-[2,5-difluoro-4-(piperidin-1-yl)phenyl]-5-{2-[(2S)-1-{(2S)-2-[(methoxycarbonyl)amino]-3-methylbutanoyl}pyrrolidin-2-yl]-1H-benzimidazol-5-yl}pyrrolidin-2-yl]-1H-benzimidazol-2-yl}pyrrolidin-1-yl]-3-methyl-1-oxobutan-2-yl}carbamate]	< 0.1 nM
COC(=O)N[C@H](C(=O)N1CCC[C@H]1c1nc2ccc([C@H]3CC[C@H](c4ccc5nc([C@@H]6CCCN6C(=O)[C@@H](NC(=O)OC)C(C)C)[nH]c5c4)N3c3ccc(S(F)(F)(F)(F)F)cc3)cc2[nH]1)C(C)C [Example 4.13, methyl {(2S)-1-[(2S)-2-(6-{(2R,5R)-5-{2-[(2S)-1-{(2S)-2-[(methoxycarbonyl)amino]-3-methylbutanoyl}pyrrolidin-2-yl]-1H-benzimidazol-6-yl}-1-[4-(pentafluoro-lambda˜6˜-sulfanyl)phenyl]pyrrolidin-2-yl}-1H-benzimidazol-2-yl)pyrrolidin-1-yl]-3-methyl-1-oxobutan-2-yl}carbamate]	< 0.1 nM
COC(=O)N[C@H](C(=O)N1CCC[C@H]1c1nc(-c2ccc(-c3ccn(-c4ccc(-c5c[nH]c([C@@H]6CCCN6C(=O)[C@@H](NC(=O)OC)C(C)C)n5)cc4)c3-c3ccc(C(C)(C)C)cc3)cc2)c[nH]1)C(C)C [Example 7.1, methyl {(2S)-1-[(2S)-2-(4-{4-[2-(4-tert-butylphenyl)-1-(4-{2-[(2S)-1-{(2S)-2-[(methoxycarbonyl)amino]-3-methylbutanoyl}pyrrolidin-2-yl]-1H-imidazol-4-yl}phenyl)-1H-pyrrol-3-yl]phenyl}-1H-imidazol-2-yl)pyrrolidin-1-yl]-3-methyl-1-oxobutan-2-yl}carbamate]	< 0.1 nM
